The values that follow come from patent US20220358646A1, “CELL ACTIVITY MACHINE LEARNING” (Q-STATE BIOSCIENCES, INC., priority 2021, published 2022).

The structures appear in SMILES notation.

The subject of assay [1] is E18 rat hippocampal neurons. The assay is described as follows: Optopatch 96-well plate firing assay, alternating columns compound/vehicle. It is filed as cell-based. To be noted: ML-213 at 1 μM versus vehicle wells. The procedure:
E18 rat hippocampal neurons were cultured for 14 days and caused to express Optopatch proteins as described in Example 1. The cells were placed in wells of a 96-well plate. ML-213 at 1 μM was added to alternating columns of the plate and a control vehicle added to the remaining columns. The cells in all wells were stimulated and their action potentials recorded using a microscope as described in Example 1.
FIG. 30 provides the average firing rate during the blue light stimulus ramp for each well.
FIG. 32 provides a plot of the average number of spikes recorded for individual cells in each well during the blue light stimulus ramp.

Assay [2] concerns hiPSC-derived motor neurons. The experiment in a line: Optopatch optical stimulation and voltage recording of hiPSC-derived motor neurons before and after compound addition. It is filed as cell-based, human. An excerpt:
Human induced pluripotent stem cells (hiPSC) were differentiated into hiPSC-derived motor neurons. The cells expressed an optogenetic proteins from the Optopatch toolkit (optical stimulation plus optical voltage reporting, e.g., CheRiff & QuasAr), which allows simultaneous optical stimulation and recording of neuronal action potentials.
The channelrhodopsin CheRiff enables action potential stimulation with blue light and the voltage-sensitive fluorescent protein QuasAr enables high-speed electrical recordings with red light. A microscope, as disclosed herein, obtained simultaneous voltage recordings from >100 individual neurons over a large (0.5×4 mm) field of view (FOV) with 1 ms temporal resolution and high signal-to-noise ratio (SNR). A digital micromirror device (DMD) in the microscope projected a fully reconfigurable optical pattern to sequentially stimulate cells while recording from many post-synaptic partners. […]
In every trace the spikes were detected and the key spike shape and timing parameters were computed. […]
Pixels in the recording that captured fluorescence from the reporters of membrane potential in each neuron co-varied in time following that cell's unique firing pattern. […] Each FOV was recorded twice, before and after addition of potassium channel opener ML-213. […]

Assay [3] concerns E18 rat hippocampal neurons. The experiment in a line: Optopatch functional phenotypes of compounds in cultured neurons. It is filed as cell-based. Particulars: normalized to control vehicle, 14 days culture. The protocol:
E18 rat hippocampal neurons were cultured for 14 days and caused to express Optopatch proteins as described in Example 1. The cells were stimulated in the presence of XE-991 (a Kv7.x blocker), ML-213 (a Kv7.x opener), a-Dendrotoxin (a Kv1.x blocker), OXO-M (a muscarinic agonist), 4AP (a promiscuous Kv blocker), Isradipine (a Cav1.x blocker), or a control vehicle. FIG. 26 provides radar plots representing generated functional phenotypes indicative of the drug-induced changes in neuronal spiking behavior along many dimensions. The action potential feature values were normalized to those for the cells simulated in the presence of the control vehicle. As shown in the radar plots, each compound provided a discernable and unique functional phenotype. […] FIG. 27 provides concentration response curves for the cells in the presence of varied concentrations of the compounds. Each symbol represents >100 cells in one well and all measurements were obtained in a single day. Thus, the present systems and methods can not only elucidate therapeutic responses of various compounds, but also show concentration-dependent responses. Moreover, as the measurements were taken in a single day, the presently disclosed systems and methods enable fast, high-throughput drug screening.

For assay [4], the system named is iPSC-derived excitatory cortical neurons (NGN2) with loss of function knockout. The assay is described as follows: Optopatch functional phenotype reversal in knockout (KO) disease-model neurons versus wildtype control. It is filed as cell-based, human. To be noted: for cell behavior projected onto phenotype/side effect space: KO cells, 8 concentrations from 0.28 to 600 μM, two replicates; for reversal of disease-model functional phenotype (radar plot of action potential features): KO disease-model cells stimulated in presence of compound, normalized to control cells. The procedure:
In this example, iPSC-derived excitatory cortical neurons (NGN2) were grown for 30 days in a culture. The neurons expressed Optopatch proteins as described in Example 1. Two sets of neurons were grown. The first was a wildtype control line.
The cells were stimulated using blue light as described in Example 1 and their action potentials recorded as voltage traces. Recordings were made of the control cells and disease-model cells when stimulated in the absence of any test compound. Recordings were also made of the disease-model cells when stimulated in the presence of the promiscuous potassium channel blocker 4-AP and the promiscuous sodium channel blocker lamotrigine.
FIG. 23 provides radar plots representing functional phenotypes generated by a machine learning system using action potential features extracted from the recorded action potentials when the cells were stimulated by blue light. The values for the features are normalized to the control cell recordings. […] The differences in the recorded traces, select features of which are provided on the radar plots, show the functional phenotype of the disease-model.
FIG. 24 is a diagram illustrating phenotype reversal and “side effects” described by mapping extracted action potential features on the ˜300-dimensional space of recorded parameters, only two of which are shown. Extracted features for the control cell (WT) wells (green) are clustered as are those for the KO cells (red). The vector between these populations represents the phenotype (red). Drug effects (blue) are deconstructed into components along (phenotype reversal) and orthogonal to (side effects) the phenotype vector. An ideal drug would undo the effects of the mutation and move the well from the KO cluster to the control cell cluster.
FIG. 25 is a plot showing many wells projected onto the phenotype/side effect space. WT and KO wells are well separated along the phenotype direction. Application of the two compounds (8 concentrations from 0.28 to 600 μM) from FIG. 25 have increasing effects on KO cell behavior as the concentration increases. […] The connected drug points are in order of increasing concentration, and the two lines are experimental replicates on two consecutive weeks of experiment.

As to `Cc1cc(C)c(NC(=O)C2CC3CCC2C3)c(C)c1` (stereo not drawn) [ML-213], in assay [1], the “average firing rate during the blue light stimulus ramp” value is on record as “dramatically reduces firing rate”. Moreover, the neuronal excitability entry in assay [2] (1 μM ML-213, same neurons before and after addition, blue light stimulus) is given as “clear reduction in neuronal excitability”. In addition, the “resting potential and action potential firing” value in assay [2] (hiPSC-derived motor neurons) was “lowers resting potential and suppresses action potential firing”. In assay [3], the “drug-induced changes in neuronal spiking behavior (functional phenotype)” value is “drove cellular response, as expected”.
On to `O=C1c2ccccc2C(Cc2ccncc2)(Cc2ccncc2)c2ccccc21` [XE-991], for which the “drug-induced changes in neuronal spiking behavior (functional phenotype)” value in assay [3] is on record as “drove cellular response, as expected”.
In the case of `Nc1ccncc1` [4-AP], in assay [4], the “cell behavior projected onto phenotype/side effect space” value is “moves cell behavior toward and beyond WT behavior”; the “reversal of disease-model functional phenotype (radar plot of action potential features)” value is listed as “substantially reversed the phenotype”.
For the molecule `Nc1nnc(-c2cccc(Cl)c2Cl)c(N)n1` [lamotrigine], in assay [4], the “cell behavior projected onto phenotype/side effect space” value was “moves behavior away from both WT and KO”; the “reversal of disease-model functional phenotype (radar plot of action potential features)” value is listed as “perturbed behavior but did not reverse the phenotype”.
